From patent US20250099554A1, “COMPOSITIONS AND METHODS OF FAS INHIBITION” (ONL Therapeutics, Inc., priority 2018, published 2025)
“Also recorded” adds a separate entry of the source. Where a SMILES comes first, the peptide text is derived from it.

Legend:
[1] = system: neural retina inflammatory gene expression; assay: qPCR of neural retina at 28 days post microbead injection (Example 2); type: in vivo, C57BL/6J mice; conditions: treated on Day 0
Procedure: (§1) C57BL/6J mice were used in this experiment in which 2 μL of sterile polystyrene microbeads (15 μm; 7.2×10^6 bead/mL) or saline were injected into the anterior chamber on Day 0 followed by 1 μL of 0.5 mg/mL or 2 mg/mL Compound 1 or vehicle by intravitreal (IVT) injection on Day 0 or 7 days after the microbead/saline injections. IOP was followed every 3 days for 4 weeks using a rebound tonometer (TonoLab). At 4 weeks post anterior chamber injection, retinal flatmounts were prepared and stained for Brn3a, an RGC-specific protein, to visualize RGCs. Sixteen non-overlapping images were taken, at 60× with 4-5 images within each quadrant and the images were used to calculate the RGC density. For axon analysis, optic nerves were stained with p-phenylenediamine (PPD) to visualize myelinated axons and 10 non-overlapping photomicrographs were taken at 100× magnification covering the entire area of the optic nerve cross-section, and these images were used to calculate the axon density. Quantitative PCR (qPCR) was also performed on retinal tissue isolated from the mice at 28 days post microbead/saline injections. To assess production of mature IL-1β (p17), protein lysates (20 μg per sample) were prepared from posterior eye cups (neural retina, choroid, and sclera) at 28 days post microbead/saline injections and analyzed by Western blot and densitometry. All data are presented as mean±SEM. One-way ANOVA and the Sidak multiple-comparison test were used for analysis of RGCs and axons. A p value<0.05 was considered significant.
(§2) Quantitative PCR was performed on neural retina isolated at 28 days post microbead injection from mice treated with ONL1204 (or vehicle) on Day 0. Data shown are mRNA expression fold change over saline controls+/−SEM. N=4/group, *P<0.05, **P<0.01. For analysis of mature IL-1β (p17) production, protein lysates ([…] per sample) were prepared from posterior eye cups (neural retina, choroid, and sclera) and analyzed by Western blot.

[2] = system: neural retina gene expression following elevated IOP; assay: qPCR of neural retina after microbead-induced elevation of IOP (Example 1); type: in vivo, mice
Source text: Quantitative PCR (qPCR) was used on neural retina samples isolated at 28 days post microbead or saline injection from mice treated with Compound 1 (or vehicle) on Day 0.
Data shown are mRNA expression fold change over saline+vehicle control+/−SEM. N=6/group, **P<0.01, ***P<0.001, ****P<0.0001.
A 96-well was expanded to a 384-well qPCR system to allow for an increase in the number of genes to be examined in one run.
For this qPCR analysis, saline+vehicle was used as the control. DDCt=experimental DCt−mean DCt of saline+vehicle, and Expression Fold Change=2^−DDCt.

[3] = system: mature IL-1β (p17); assay: Western blot and densitometry of mature IL-1β (p17) in posterior eye cups; type: in vivo, C57BL/6J mice
Procedure: as §1, with “For axon analysis, optic nerves were stained with p-phenylenediamine (PPD) to visualize myelinated axons and 10 non-overlapping photomicrographs were taken at 100× magnification covering the entire area of the optic nerve cross-section, and these images were used to calculate the axon density.” left out, “All data are presented as mean±SEM. One-way ANOVA and the Sidak multiple-comparison test were used for analysis of RGCs and axons. A p value<0.05 was considered significant.” left out
as §2, with “Data shown are mRNA expression fold change over saline controls+/−SEM. N=4/group, *P<0.05, **P<0.01.” left out

[4] = IOP by rebound tonometer in microbead-induced mouse model of elevated IOP; type: in vivo, C57BL/6J mice
Procedure: as §1, with “One-way ANOVA and the Sidak multiple-comparison test were used for analysis of RGCs and axons. A p value<0.05 was considered significant.” left out

[5] = system: retinal microglia/macrophages; assay: Iba1 staining of retinal whole mounts, microglia/macrophage activation; type: in vivo, C57BL/6J mice; conditions: 28 days post microbead injection, treated at Day 0
Procedure: FIG. 12 depicts representative confocal images of retinal whole mounts at 28 days post microbead injection from mice treated with ONL1204 (or vehicle) at Day 0. Retinal whole mounts were stained with Iba1 (microglia/macrophage). Yellow arrows indicate homeostatic microglia with dendritic morphology; blue arrows indicate activated microglia and/or infiltrating macrophages with amoeboid morphology. Morphometric analysis was performed on Iba1+cells in the ganglion cell layer (60 cells per retina) and the longest process length measured from the edge of the cell body (in […]) was used to quantitate microglia activation.

[6] = system: retinal ganglion cells (RGCs) and axons; assay: RGC (Brn3a) and axon (PPD) density in microbead-induced mouse model of elevated IOP; type: in vivo, C57BL/6J mice
Procedure: as §1

[7] = 28 days post microbead injection, treated Day 0
[8] = 28 days post microbead injection, treated Day 0, vs microbeads and vehicle
[9] = 0.5 mg/ml, 1 μL IVT at Day 0, 4 weeks
[10] = 2.0 mg/mL IVT at Day 7 post-microbead injection, compared to saline plus vehicle controls
[11] = 2 mg/ml, 1 μL IVT at Day 0, 4 weeks

CC[C@H](C)[C@H](NC(=O)[C@H](Cc1ccc(O)cc1)NC(=O)[C@H](CC(N)=O)NC(=O)[C@@H](NC(=O)[C@H](C)NC(=O)CNC(=O)[C@H](CC(C)C)NC(=O)[C@H](Cc1ccc(O)cc1)NC(=O)[C@@H](NC(=O)[C@H](Cc1cnc[nH]1)NC(=O)[C@@H](N)Cc1cnc[nH]1)[C@@H](C)CC)C(C)C)C(=O)N[C@@H](Cc1ccc(O)cc1)C(N)=O [Compound 1, His-His-Ile-Tyr-Leu-Gly-Ala-Val-Asn-Tyr-Ile-Tyr-amide] (H-HHIYLGAVNYIY-NH2)
CCL2/MCP-1 gene expression [1]: substantially inhibited | CCL3/MIP-1α gene expression [1]: substantially inhibited | TNF-α gene expression [1]: substantially inhibited | ASC gene expression ([2]; 28 day time point): Limited or no change | Bax gene expression ([2]; 28 day time point): unaffected | FADD gene expression ([2]; 28 day time point): unaffected | FasL gene expression ([2]; 28 day time point): unaffected | FasR gene expression ([2]; 28 day time point): unaffected | NLRP2 gene expression ([2]; 28 day time point): Limited or no change | caspase 3 gene expression ([2]; 28 day time point): unaffected | complement C4 gene expression ([2]; 28 day time point): Limited or no change | C1q gene expression [2, 7]: significantly reduced | Caspase 8 gene expression [2, 7]: significantly reduced | Complement C3 gene expression [2, 7]: significantly reduced | NLRP3 gene expression [2, 7]: significantly reduced | TLR4 gene expression [2, 7]: significantly reduced | cFLIP gene expression (pro-survival) ([2]; 28 days post microbead injection, treated Day 0, decreased in microbead controls): restored to near-baseline | GFAP gene expression [2, 8]: significantly reduced | IL-1β gene expression [2, 8]: significantly reduced | IL-6 gene expression [2, 8]: significantly reduced | IL-18 gene expression [2, 8]: significantly reduced | IP-10 gene expression [2, 8]: significantly reduced | MCP-1 gene expression [2, 8]: significantly reduced | MIP1α gene expression [2, 8]: significantly reduced | MIP2 gene expression [2, 8]: significantly reduced | MIP-1β gene expression [2, 8]: significantly reduced | TNFα gene expression [2, 8]: significantly reduced | production of mature IL-1β ([3]; 28 days post microbead injection): reduced | reduction in production of mature IL-1β by densitometry, compared to vehicle ([3]; Western blot, following microbead injection): two-fold | effect on IOP ([4]; IVT injection on Day 7 post microbeads): did not affect | effect on IOP ([4]; IVT injection on the same day as the microbeads): did not affect | microglial/macrophage activation [5]: inhibits; also recorded: reduced number of activated microglia/macrophages | axon density [6, 9]: statistically significant preservation | retinal ganglion cell density [6, 9]: statistically significant preservation | axon density [6, 10]: nearly total preservation | retinal ganglion cell density [6, 10]: nearly total preservation | axon density [6, 11]: statistically significant preservation | retinal ganglion cell density [6, 11]: statistically significant preservation
